Test results from patent US10300155B2, “Alpha-synuclein ligands” (Washington University, priority 2015, dated 2019).
Several values for one entry are separate records, joined by “and”; a condition that tells them apart may be missing. Identical values can stand only once. Like-named read-outs stand apart in the source and are kept apart here.

Molecular target: T1, α-synuclein fibrils (Homo sapiens, UniProt P37840)
T1 construct: made in house; host or cells: E. coli BL21(DE3)RIL
Test: ThT competitive assay for α-synuclein fibrils (Table 1)
Assay type: binding
Conditions: for EC50: α-synuclein fibrils
Description: Upon binding to amyloid fibrils, a peak at approximately 440 nm becomes dominant with the fluorescent emission maximum shifted to 480 nm. This is accompanied by a strong enhancement of the fluorescence.
α-Synuclein recombinant protein was produced in E. coli. […] Freshly transformed BL21 colonies were inoculated into 2 L baffled flasks containing 250 mL sterilized TB (1.2% bactotryptone, 2.4% yeast extract, 0.4% glycerol, 0.17 M KH2PO4, 0.72 M K2HPO4) with 50 μg/ml ampicillin, and incubated overnight at 37° C. with shaking.
To determine the concentration of fibrils, the reaction mixture (100 μL) was centrifuged at 18,000×g for 10 minutes to separate fibrils from monomer. The α-synuclein monomer and other soluble proteins in the supernatant were removed, and the fibril pellet was resuspended in 100 μL solution of Tris-HCl (20 mM) and NaCl (100 mM). This fibril suspension was used in a bicinchoninic acid (BCA) protein assay along with a bovine serum albumin (BSA) standard curve to determine the concentration of fibrils in the 72 hour fibril reaction mixture.
To prepare the fibrils for performing binding assays, the fibril reaction mixture prepared above was centrifuged at 18,000×g for 10 minutes.
Once the ThT-α-synuclein saturation binding curve and dissociation constant (Kd) were determined the competitive assay for determining the binding affinity of various test compounds was conducted. […] The mixture was incubated at room temperature for 60 minutes on the shaking plate. The fluorescent intensity for each cell was measured by the fluorescence reader at λex and λem. The Ki value for each compound was calculated by the corresponding inhibition curve.
The Ki values were derived from the EC50 values using the Cheng-Prusoff equation: Ki=EC50/(1+[radioligand]/Kd). See FIGS. 17.1-31.2 for the inhibition curves for each compound in the ThioT competitive binding assay.

[1] = average, read-out: Ki (nM) α-syn (avg)
[2] = individual determinations, read-out: Ki (nM) α-syn
[3] = average, read-out: EC50 (nM) EC50 (avg)
[4] = individual determinations, read-out: EC50 (nM) EC50

Structure (SMILES)	Ki [1]	Ki [2]	EC50 [3]	EC50 [4]
COc1ccc2nc(/C=C/c3ccccn3)ccc2c1 [TZ-36-34]	193 nM	193 nM	504 nM	504 nM
COc1ccc(/C=C/c2ccc(CO)s2)cc1 [TZ-34-46]	108 nM	105 nM and 110 nM	281 nM	275 nM and 287 nM
COc1cccc2nc(/C=C/c3ccncc3)ccc12 [TZ-23-06]	96.3 nM	96.3 nM	–	–
COc1ccc(C2CCN(C(=O)COC(=O)c3ccc(C(C)(C)C)cc3)CC2)cc1 [TZ-20-23]	109 nM	109 nM	–	–
COc1ccc2nc(/C=C/c3ccccc3)ccc2c1 [TZ-19-144]	196 nM	196 nM	–	–
COc1ccc2ccc(/C=C/c3ccncc3)nc2c1 [TZ-23-02]	71.8 nM	71.8 nM	–	–
COC(=O)C(Cc1ccc(O)cc1)NC(=O)c1ccc(/C=C/c2ccncc2)cc1 (stereo not shown) [TZ-20-77]	523 nM	523 nM	–	–
O=[N+]([O-])c1ccc(/C=C/c2ccncc2)cc1 [TZ-20-59]	52.8 nM	52.8 nM	–	–
COc1ccc(/C=C/c2cccnn2)cc1 [TZ-22-23-1]	1140 nM	1140 nM	–	–
COc1ccc(NC(=O)c2ccc(/C=C/c3ccncc3)cc2)cc1 [TZ-20-83]	–	19.1 nM	–	–
COc1ccc2nc(/C=C/c3ccc(Cl)nc3)ccc2c1 [TZ-36-38]	39 nM	31 nM and 47 nM	101 nM	80 nM and 122 nM
C(=C\c1cccs1)/c1ccncc1 [TZ-34-100]	604 nM	604 nM	1580 nM	1580 nM
COC(=O)c1ccc(/C=C/c2ccncc2)cc1 [TZ-20-35]	16.1 nM	16.1 nM	–	–
COc1ccc2ccc(/C=C/c3ccccc3)nc2c1 [TZ-19-146]	666 nM	666 nM	–	–
COC(=O)c1ccc(/C=C/C=C/c2ccncc2)cc1 [TZ-20-111]	–	56 nM	–	–
COc1ccc(/C=C/c2ccc(C(=O)NCCF)s2)cc1 [TZ-34-94]	160 nM	223 nM and 61 nM and 197 nM	419 nM	583 nM and 160 nM and 514 nM
COc1ccc2nc(/C=C/c3cccs3)ccc2c1 [TZ-36-50]	403 nM	403 nM	1050 nM	1050 nM
Ic1ccc(/C=C/c2cccs2)cc1 [TZ-34-63]	80 nM	80 nM	208 nM	208 nM
FC(F)(F)c1ccc(/C=C/c2ccncc2)cc1 [TZ-20-75]	36.8 nM	36.8 nM	–	–
COc1ccc(/C=C/c2cnccn2)cc1OC [TZ-22-37-1]	213 nM	213 nM	–	–
COc1ccc(/C=C/c2ccncn2)cc1 [TZ-22-19-1]	154 nM	154 nM	–	–
COc1ccc2nc(/C=C/c3ccncc3)ccc2c1 [TZ-19-158]	29.1 nM	29.1 nM	–	–
COc1cccc2nc(/C=C/c3ccccc3)ccc12 [TZ-19-152]	532 nM	532 nM	–	–
COc1ccc(/C=C/c2ccc(-c3nccs3)s2)cc1 [TZ-37-96]	98.5 nM	102 nM and 95 nM	–	–
COc1ccc(/C=C/c2cc(Br)cs2)cc1 [TZ-34-39]	256 nM	233 nM and 278 nM	668 nM	609 nM and 727 nM
COc1ccc2nc(/C=C/c3cccnc3C)ccc2c1 [TZ-36-44]	289 nM	289 nM	755 nM	755 nM
COc1ccc2nc(/C=C/c3ccsc3)ccc2c1 [TZ-36-30]	122 nM	122 nM	320 nM	320 nM
O=[N+]([O-])c1ccc(/C=C/c2cccs2)cc1 [TZ-34-74]	55 nM	55 nM	145 nM	145 nM

Structure (SMILES)	Ki [1]	Ki [2]	EC50 [3]	EC50 [4]
COc1ccc(/C=C/c2cncs2)cc1 [TZ-34-35]	323 nM	313 nM and 333 nM	845 nM	819 nM and 871 nM
C(=C\c1ccccc1)/CN1c2ccccc2Sc2ccccc21 [TZ-19-126]	3880 nM	3880 nM	–	–
O=C(Nc1ccc(Br)cc1)c1ccc(/C=C/c2ccncc2)cc1 [TZ-23-52]	10.4 nM	–	–	–
COc1cccc(/C=C/c2cnccn2)c1 [TZ-22-49-1]	117 nM	117 nM	–	–
Fc1ccc(/C=C/c2ccncc2)cc1 [TZ-20-73]	432 nM	432 nM	–	–
COc1ccc2c(c1)Oc1cc([N+](=O)[O-])ccc1N2C/C=C/c1ccc(N(C)C)cc1 [TZ-19-140]	467 nM	467 nM	–	–
CN(C)c1ccc(/C=C/C=C/c2cccs2)cc1 [TZ-34-97]	69 nM	69 nM	180 nM	180 nM
COc1ccc2nc(/C=C/c3ccncc3Br)ccc2c1 [TZ-36-46]	168 nM	140 nM and 195 nM	437 nM	365 nM and 509 nM
COc1ccc2c(c1)NC(=O)/C(=C/C=C/c1ccc([N+](=O)[O-])cc1)O2 [TZ-19-122]	598 nM	598 nM	–	–
O=[N+]([O-])c1ccc2nc(/C=C/c3cnccn3)ccc2c1 [TZ-36-20]	926 nM	926 nM	2420 nM	2420 nM
COc1ccc2nc(/C=C/c3cccnc3Cl)ccc2c1 [TZ-36-40]	62 nM	62 nM	163 nM	163 nM
O=C(OCCF)c1ccc(/C=C/c2ccncc2)cc1 [TZ-20-63]	96 nM	96 nM	–	–
Fc1ccc(/C=C/c2cccs2)cc1 [TZ-34-60]	1000 nM	1000 nM	1000 nM	1000 nM
COc1ccc2nc(/C=C/c3cnccn3)ccc2c1 [TZ-23-12]	36.4 nM	36.4 nM	–	–
COc1ccc2nc(/C=C/c3ccnc(F)c3)ccc2c1 [TZ-36-26-2T]	434 nM	–	1140 nM	–
CC(C)OC(=O)c1ccc(/C=C/c2ccncc2)cc1 [TZ-20-65]	75.6 nM	75.6 nM	–	–
COc1ccccc1NC(=O)c1ccc(/C=C/c2ccncc2)cc1 [TZ-20-81]	150 nM	150 nM	–	–
Brc1ccc(/C=C/c2cccs2)cc1 [TZ-34-55]	198 nM	198 nM	519 nM	519 nM
O=C(NCCF)c1ccc(/C=C/c2ccncc2)cc1 [TZ-20-79]	115 nM	115 nM	–	–
COc1ccc(/C=C/c2cc3ccccc3s2)cc1 [TZ-34-87]	884 nM	884 nM	2310 nM	2310 nM
COc1ccc2nc(/C=C/c3ccncc3Cl)ccc2c1 [TZ-36-48]	414 nM	414 nM	1080 nM	1080 nM
Brc1ccc(/C=C/c2cnccn2)cc1 [TZ-22-47-1]	76.7 nM	76.7 nM	–	–
COc1ccc2c(c1)NC(=O)/C(=C/C=C/c1ccc([N+](=O)[O-])cc1)S2 [TZ-19-124]	254 nM	254 nM	–	–
Fc1ccc(/C=C/c2ccsc2)cc1 [TZ-34-59]	860 nM	860 nM	2250 nM	2250 nM
CNC(=O)c1ccc(/C=C/c2ccncc2)cc1 [TZ-20-69]	85.6 nM	85.6 nM	–	–
C(=C\c1ccccc1)/CN1c2ccccc2Oc2ccccc21 [TZ-19-136]	3060 nM	3060 nM	–	–
Brc1ccc2nc(/C=C/c3cnccn3)ccc2c1 [TZ-36-24]	453 nM	453 nM	1190 nM	1190 nM
